According to ChEMBL document CHEMBL3272218, “Biologically active derivatives of angiotensin for labeling cellular receptors” (J Med Chem, 1978):
Peptide text beside a SMILES is read from it. * marks the point of attachment. X2 = O=C(O)c1cc(NC(=S)*)ccc1-c1c2ccc(=O)cc-2oc2cc(O)ccc12; X1 = O=Cc1ccc(C(=O)*)cc1

Target: T1, Type-1 angiotensin II receptor (Oryctolagus cuniculus) (UniProt P34976)
T1 sequence (whole entry): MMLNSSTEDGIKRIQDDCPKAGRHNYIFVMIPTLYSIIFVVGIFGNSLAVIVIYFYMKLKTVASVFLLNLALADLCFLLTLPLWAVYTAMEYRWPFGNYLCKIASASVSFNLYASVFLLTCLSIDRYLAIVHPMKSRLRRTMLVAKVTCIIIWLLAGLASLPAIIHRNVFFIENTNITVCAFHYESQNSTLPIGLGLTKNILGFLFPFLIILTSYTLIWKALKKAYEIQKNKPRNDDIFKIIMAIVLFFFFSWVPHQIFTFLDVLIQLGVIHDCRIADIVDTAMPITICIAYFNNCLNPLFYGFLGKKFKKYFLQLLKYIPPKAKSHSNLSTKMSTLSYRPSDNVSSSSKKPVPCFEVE
Assay: Relative binding affinity of the compound assessed as ratio of [Asp1,Ile5]angiotensin II ED50 to compound ED50 for angiotensin 2 receptor in rabbit aortic strips

| relative binding affinity (RBA) | Compound |
| --- | --- |
| 8 | CC(C)[C@H](NC(=O)[C@H](CCCNC(=N)N)NC(=O)[C@H](CC(N)=O)NC(=O)c1ccc(C=O)cc1)C(=O)N[C@@H](Cc1ccc(O)cc1)C(=O)N[C@H](C(=O)N[C@@H](Cc1cnc[nH]1)C(=O)N1CCC[C@H]1C(=O)N[C@@H](Cc1ccccc1)C(=O)O)C(C)C (X1-NRVYVHPF-OH) |
| 1 | CC(C)[C@H](NC(=O)[C@H](CCCNC(=N)N)NC(=O)[C@H](CC(N)=O)NC(=S)Nc1ccc(-c2c3ccc(=O)cc-3oc3cc(O)ccc23)c(C(=O)O)c1)C(=O)N[C@@H](Cc1ccc(O)cc1)C(=O)N[C@H](C(=O)N[C@@H](Cc1cnc[nH]1)C(=O)N1CCC[C@H]1C(=O)N[C@@H](Cc1ccccc1)C(=O)O)C(C)C (X2-NRVYVHPF-OH) |
| 3 | CC[C@H](C)[C@H](NC(=O)[C@H](Cc1ccc(O)cc1)NC(=O)[C@@H](NC(=O)[C@H](CCCNC(=N)N)NC(=O)[C@H](CC(=O)O)N1C=C(c2ccccc2)C(=O)C1(O)c1ccccc1)C(C)C)C(=O)N[C@@H](Cc1cnc[nH]1)C(=O)N1CCC[C@H]1C(=O)N[C@@H](Cc1ccccc1)C(=O)O (some centres not stated) |
| 23 | CC(C)[C@H](NC(=O)[C@H](CCCNC(=N)N)NC(=O)[C@@H](N)CC(N)=O)C(=O)N[C@@H](Cc1ccc(O)cc1)C(=O)N[C@H](C(=O)N[C@@H](Cc1c[nH]cn1)C(=O)N1CCC[C@H]1C(=O)N[C@@H](Cc1ccccc1)C(=O)O)C(C)C (H-NRVYVHPF-OH) |
| 2 | CC[C@H](C)[C@H](NC(=O)[C@H](Cc1ccc(O)cc1)NC(=O)[C@@H](NC(=O)[C@@H](N)CCCN=C(N)N)C(C)C)C(=O)N[C@@H](Cc1c[nH]cn1)C(=O)N1CCC[C@H]1C(=O)N[C@@H](Cc1ccccc1)C(=O)O |
| 0.5 | CCCC[C@H](NC(=O)c1cc(N=[N+]=[N-])ccc1[N+](=O)[O-])C(=O)N[C@@H](CC(=O)O)C(=O)N[C@@H](CCCNC(=N)N)C(=O)N[C@H](C(=O)N[C@@H](Cc1ccc(O)cc1)C(=O)N[C@H](C(=O)N[C@@H](Cc1cnc[nH]1)C(=O)N1CCC[C@H]1C(=O)N[C@@H](Cc1ccccc1)C(=O)O)[C@@H](C)CC)C(C)C |
| 0.03 | CC[C@H](C)[C@H](NC(=O)[C@H](Cc1ccc(O)cc1)NC(=O)[C@@H](N)C(C)C)C(=O)N[C@@H](Cc1cnc[nH]1)C(=O)N1CCC[C@H]1C(=O)N[C@@H](Cc1ccccc1)C(=O)O |
